Assay results from patent publication US12036228B2, “Treatment of seizure disorders” (Shackelford Pharma Inc., priority 2022, dated 2024).

Experiments:
[1] = system: seizures / EEG abnormalities in human patient; experiment: Example 8 pediatric patient with atonic seizures, myoclonic seizures and Doose syndrome (24 hour EEG, seizures); type: in vivo; details: CBD transdermal patches
Experimental: They had continued to experience several seizures per day of all types despite multiple combination regimens of prescription anti-seizure medications and a trial of THC-A transdermal patch and CBD (Charlotte's Web) oral tincture and CBD transdermal patches up until the day they were first evaluated for cannabinoid treatment (age 4.5 on Mar. 8, 2016). […] They were then prescribed 1 mg oral THC tincture three times per day. On Mar. 8, 2018, the patient returned for follow-up where it was learned that all cannabinoids had been discontinued. […] The THC-A transdermal patch was restarted at 1.875 mg/day with a reduction in EEG abnormalities to 400/24 hours. Oral THC 2.5 mg BID was then restarted with a further reduction in EEG abnormalities to 20/24 hours. […] Due to the significant reduction in brain pre-seizure activity after restarting THC and concerns that there are effective dosage variations among transdermal products, the patient was then prescribed oral THC 2.5 mg BID which they continue to take.

[2] = system: GTC seizures in human patients; experiment: THC treatment of several human patients with GTC seizures (responder rate, one-year remission rate, adverse effects); type: in vivo
Excerpt: Several human patients commenced treatment with THC after a first visit. More details about the treatment are provided below. The group included 82 total adult patients and 12 total pediatric patients. Of those 94 patients, 34 adult patients and 10 pediatric patients had experienced at least one GTC seizure in the year preceding the first visit. At the time of first visit, 14 of the 34 adult patients and 8 of the 10 pediatric patients had never taken THC. At the time of first visit, five of the 34 adult patients and two of the 10 pediatric patients were consistently/regularly taking THC. At the time of first visit, 15 of the 34 adult patients and none of the 10 pediatric patients were inconsistently/irregularly taking THC or had taken THC at some point in the past and were no longer taking THC.
At the time of first visit, 16 of the 34 adult patients had treatment resistant epilepsy, which means the patients had persistent GTC seizures despite taking two different anti-seizure medications at, or prior to, the first visit. At the time of first visit, all 10 of the pediatric patients had treatment resistant epilepsy.
The first visit means the date when the patient first saw the doctor for evaluation for THC treatment for GTC seizures. Responder rates means the percentage of patients that had at least a 50% reduction in GTC seizure frequency over a one-year treatment period with THC. One-year remission rate means the percentage of patients that experienced no GTC seizures in a one-year period after commencing THC treatment.
All of the 34 adult patients and 10 pediatric patients were taking other anti-seizure medications or had other anti-seizure treatment at the time of the first visit. […] Those anti-seizure medications and other anti-seizure treatments included: lamotrigine, topiramate, topiramate XR, vagus nerve stimulation, phenytoin, valproic acid, zonisamide, benzodiazepine, surgery, levetiracetam, carbamazepine, oxcarbazepine, lacosamide, perampanel, clonazepam, phenobarbial, pregabalin, gabapentin, rufinamide, CBD (e.g., Epidiolex), clobazam, and felbamate. Also, all patients who were using THC oral dosages were using products that included no CBD or products that included CBD in doses well below the therapeutic dose for Epidiolex.
THC Treatment for the 82 adult patients varied. Many of the patients smoked marijuana, so the dosage and/or timing of the dosage was unknown. Because CBD is delivered at sub-therapeutic levels when marijuana is smoked, it is acceptable to attribute any therapeutic effect to THC. The label for the CBD drug Epidiolex includes dosages starting at 5 mg/kg daily for all indications, and increasing to maintenance doses of 10 mg/kg or 20 mg/kg for Lennox-Gestault Syndrome and Dravet Syndrome, and increasing to maintenance doses of 25 mg/kg per day for Tuberous Sclerosis Complex. When 1 gram of cannabis is smoked, it delivers CBD to the lungs in doses well below the therapeutic dose levels prescribed for Epidiolex. Some other patients took unknown dosages of THC orally.

[3] = system: seizures in human patient; experiment: Example 3 human patient, GTC and complex partial seizures; type: in vivo
Excerpt: A patient first started having GTC and complex partial (CP) seizures. […] The patient was referred for evaluation for initiation of cannabinoid/THC treatment in March 2014.

DS, LGS, TSC patients [4] = experiment: EPIDIOLEX pediatric randomized controlled clinical trials (RCTs); type: in vivo, human; details: Ped. RCTs; expected 5%
[5] = system: Treatment Resistant Epilepsy patients; experiment: EPIDIOLEX expanded access program (EAP), adults and pediatrics; type: in vivo, human; details: expected 5%
DS, LGS, TSC patients [6] = details: Ped. RCTs, cited from earlier work
[7] = system: Treatment Resistant Epilepsy patients; details: EAP, cited from earlier work
[8] = system: GTC seizures in human patient; experiment: Example 6 human patient, GTC and CPS seizures after temporal lobectomy; type: in vivo; details: re-introduction of lamotrigine (225 mg twice a day)
Experimental: A patient with a longstanding history of GTC and CPS seizures ([…]) was evaluated for surgical intervention and underwent a right temporal lobectomy in 2013. No seizure activity was experienced for 9 months; thereafter, seizures recurred with GTC seizures occurring one time per week requiring hospitalization.
The patient was first evaluated for cannabinoid treatment on Feb. 11, 2016, […] with their parents (caregivers). They were still experiencing approximately 1 GTC seizure per month at that time. On physical examination, their neurological system was grossly within normal limits. The patient's mentation was evaluated as slow, but they were responsive and fully oriented. At the time of this first visit, they had no previous exposure to cannabinoid treatment.

Structure (SMILES): C=C(C)[C@@H]1CCC(C)=C[C@H]1c1c(O)cc(CCCCC)cc1O [CBD, cannabidiol]
- effect on seizures [1]: worsened seizures in a dose-related fashion
- seizure outcome, individual pediatric patient ([2]; CBD-only containing product, 134 mg CBD per day and no THC): frequent “violent” GTC seizures
- seizure frequency and severity, individual pediatric patient ([2]; switched to 30 mg CBD only (2015)): seizure frequency and severity increased
- effect on seizures ([3]; CBD patches and an oral CBD spray): no improvement in their seizures
- effect on seizures ([3]; oral CBD 0.48 mg/kg, or 50 mg per day, along with topiramate): no improvement

Structure (SMILES): C=C(C)[C@@H]1CCC(C)=C[C@H]1c1c(O)cc(CCCCC)cc1O [EPIDIOLEX ®]
- Increase in 1 YR Seizure Remission Rate over expected (DS, LGS, TSC patients [4]): ~1.4X
- Increase in 1 YR Seizure Remission Rate over expected [5]: ~2.2X
- 1 YR Seizure Remission Rate (DS, LGS, TSC patients [6]; @14 wks): 6-7% @14 wks
- Responder Rate (DS, LGS, TSC patients [6]; DS, LGS, TSC, @ 14 wks): ~45% @ 14
- Adverse Events (DS, LGS, TSC patients [6]): Up to 12%
- 1 YR Seizure Remission Rate ([7]; @48 wks): 11% @48 wks
- Responder Rate ([7]; TRE, @48 wks): 53% @48 wks
- Adverse Events [7]: 7%

Structure (SMILES): Nc1nnc(-c2cccc(Cl)c2Cl)c(N)n1 [lamotrigine]
- effect on seizures ([3]; lamotrigine 60 mg twice daily): still having seizures
- seizure frequency [8]: decreased to 1 GTC seizure about every month
